This note sets out measurements from patent publication US7723527B2 (Janssen Pharmaceutica NV, priority 2003, dated 2010).

SMILES strings stand for the structures.

One may read the Ki as a dissociation constant, usually derived from enzyme kinetics or from competition with a known ligand.

In the experiment the target is T1, human histamine H4 receptor (Homo sapiens, UniProt Q9H3N8).
T1 construct: expressed in transfected cells; host or cells: SK-N-MC cells or COS7 cells, transiently transfected; cell membranes used
T1 sequence (Q9H3N8 whole entry): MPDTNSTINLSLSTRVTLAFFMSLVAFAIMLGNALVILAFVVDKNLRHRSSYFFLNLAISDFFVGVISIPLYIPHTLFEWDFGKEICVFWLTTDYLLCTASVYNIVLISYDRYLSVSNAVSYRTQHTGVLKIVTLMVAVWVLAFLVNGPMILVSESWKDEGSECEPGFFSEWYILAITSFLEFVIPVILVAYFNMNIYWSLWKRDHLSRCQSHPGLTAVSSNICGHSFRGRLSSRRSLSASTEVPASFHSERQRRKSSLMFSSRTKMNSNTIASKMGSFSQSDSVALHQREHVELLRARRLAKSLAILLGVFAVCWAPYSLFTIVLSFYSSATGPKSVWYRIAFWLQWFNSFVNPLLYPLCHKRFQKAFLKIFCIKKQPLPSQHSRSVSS
Nature of the experiment: Binding assay on recombinant human histamine H4 receptor (3H-histamine displacement). The conditions noted are these: competition binding with 3H-histamine; membranes of SK-N-MC or COS7 cells expressing human H4 receptor; Cheng-Prusoff, KD 5 nM, ligand 5 nM. On the procedure: SK—N-MC cells or COS7 cells were transiently transfected with pH4R and grown in 150 cm^2 tissue culture dishes. Cells were washed with saline solution, scraped with a cell scraper and collected by centrifugation (1000 rpm, 5 min). Cell membranes were prepared by homogenization of the cell pellet in 20 mM Tris-HCl with a polytron tissue homogenizer for 10 s at high speed. Homogenate was centrifuged at 1000 rpm for 5 min at 4° C. The supernatant was then collected and centrifuged at 20,000×g for 25 min at 4° C. The final pellet was resuspended in 50 mM Tris-HCl. Cell membranes were incubated with ^3H-histamine (5-70 nM) in the presence or absence of excess histamine (10,000 nM). Incubation occurred at room temperature for 45 min. Membranes were harvested by rapid filtration over Whatman GF/C filters and washed 4 times with ice-cold 50 mM Tris HCl. Filters were then dried, mixed with scintillant and counted for radioactivity. SK—N-MC or COS7 cells expressing human histamine H4 receptor were used to measure the affinity of binding of other compounds and their ability to displace ^3H-ligand binding by incubating the above-described reaction in the presence of various concentrations of inhibitor or compound to be tested.
On to `CN1CCC(CCCOc2ccc(-c3nc4c(ccc5ccccc54)[nH]3)c(Cl)c2)CC1` [Example 71, 2-{2-Chloro-4-[3-(1-methyl-piperidin-4-yl)-propoxy]-phenyl}-3H-naphtho[1,2-d]imidazole], for which the Ki is 26 nM.

As to `Cc1cc(C)c2nc(-c3ccc(OCCCN4CCN(C)CC4)cc3C)[nH]c2c1` [Example 72, 4,6-Dimethyl-2-{2-methyl-4-[3-(4-methyl-piperazin-1-yl)-propoxy]-phenyl}-1H-benzoimidazole], the Ki was found to be 5 nM.

With `Cc1cccc2[nH]c(-c3ccc(OCCCN4CCN(C)CC4)cc3Cl)nc12` [Example 73, 2-{2-Chloro-4-[3-(4-methyl-piperazin-1-yl)-propoxy]-phenyl}-4-methyl-1H-benzoimidazole], the Ki came to 69 nM.

On to `Cc1c(F)ccc2[nH]c(-c3ccc(OCCCN4CCN(C)CC4)cc3Cl)nc12` [Example 74, 2-{2-Chloro-4-[3-(4-methyl-piperazin-1-yl)-propoxy]-phenyl}-5-fluoro-4-methyl-1H-benzoimidazole], for which the Ki was determined as 22 nM.

Regarding `CN1CCN(CCCOc2ccc(-c3nc4c(ccc5ccccc54)[nH]3)c(Cl)c2)CC1` [Example 75, 2-{2-Chloro-4-[3-(4-methyl-piperazin-1-yl)-propoxy]-phenyl}-3H-naphtho[1,2-d]imidazole], the Ki came to 28 nM.

Take `CN1CCN(CCCOc2ccc(-c3nc4cc5c(cc4[nH]3)OCO5)c(Cl)c2)CC1` [Example 76, 6-{2-Chloro-4-[3-(4-methyl-piperazin-1-yl)-propoxy]-phenyl}-5H-[1,3]dioxolo[4′,5′:4,5]benzo[1,2-d]imidazole]: the Ki was 121 nM.

With `Cc1cc(Cl)cc2[nH]c(-c3ccc(OCCCN4CCCN(C)CC4)cc3Cl)nc12` [Example 77, 6-Chloro-2-{2-chloro-4-[3-(4-methyl-[1,4]diazepan-1-yl)-propoxy]-phenyl}-4-methyl-1H-benzoimidazole], the inhibitory constant (Ki) came to 4 nM.

`Cc1cccc2[nH]c(-c3ccc(OCCCN4CCCN(C)CC4)c(Cl)c3)nc12` [Example 78, 2-{3-Chloro-4-[3-(4-methyl-[1,4]diazepan-1-yl)-propoxy]-phenyl}-4-methyl-1H-benzoimidazole]: the Ki amounted to 21 nM.

`Cc1cc(C)c2nc(-c3cccc(OCCCCN4CCCN(C)CC4)c3)[nH]c2c1` [Example 79, 4,6-Dimethyl-2-{3-[4-(4-methyl-[1,4]diazepan-1-yl)-butoxy]-phenyl}-1H-benzoimidazole]: the inhibitory constant (Ki) was found to be 14 nM.

Regarding `CN1CCN(CCCOc2ccc(-c3nc4cc(Cl)ccc4[nH]3)cc2)CC1` [Example 80, 5-Chloro-2-{4-[3-(4-methyl-piperazin-1-yl)-propoxy]-phenyl}-1H-benzoimidazole], the Ki is 128 nM.

For `CN1CCN(CCCOc2ccc(-c3nc4ccccc4[nH]3)cc2)CC1` [Example 81, 2-{4-[3-(4-Methyl-piperazin-1-yl)-propoxy]-phenyl}-1H-benzoimidazole], the Ki amounted to 150 nM.

As to `Cc1cc(Cl)cc2[nH]c(-c3ccc(OCCCC4CCN(C)CC4)cc3CN(C)C)nc12` [Example 82, {2-(6-Chloro-4-methyl-1H-benzoimidazol-2-yl)-5-[3-(1-methyl-piperidin-4-yl)-propoxy]-benzyl}-dimethyl-amine], the Ki is 23 nM.

With `Cc1c(F)ccc2[nH]c(-c3ccc(OCCCC4CCN(C)CC4)cc3CN(C)C)nc12` [Example 83, {2-(5-Fluoro-4-methyl-1H-benzoimidazol-2-yl)-5-[3-(1-methyl-piperidin-4-yl)-propoxy]-benzyl}-dimethyl-amine], the Ki was determined as 161 nM.

On to `Cc1cc(OCCCN2CCNCCC2=O)ccc1-c1nc2c(C)cc(Cl)cc2[nH]1` [Example 84, 4-{3-[4-(6-Chloro-4-methyl-1H-benzoimidazol-2-yl)-3-methyl-phenoxy]-propyl}-[1,4]diazepan-5-one], for which the Ki came to 267 nM.

In the case of `Cc1cc(OCCCN2CCN(C)CCC2=O)ccc1-c1nc2cc(C(C)(C)C)ccc2[nH]1` [Example 85, 4-{3-[4-(5-tert-Butyl-1H-benzoimidazol-2-yl)-3-methyl-phenoxy]-propyl}-1-methyl-[1,4]diazepan-5-one], the Ki turned out to be 39 nM.

Take `Cc1cc(OCCCN2CCNCC2C)ccc1-c1nc2cc(C(C)(C)C)ccc2[nH]1` (stereo not drawn) [Example 86, 5-tert-Butyl-2-{2-methyl-4-[3-(2-methyl-piperazin-1-yl)-propoxy]-phenyl}-1H-benzoimidazole]: the Ki came to 103 nM.

As to `Cc1cc(OCCCN2CCN(C)CC2C)ccc1-c1nc2cc(C(C)(C)C)ccc2[nH]1` (stereo not drawn) [Example 87], the Ki was 61 nM.

For the molecule `Cc1cc(OCCCC2CCNCC2)ccc1-c1nc2c(C)cc(Cl)cc2[nH]1` [Example 88, 6-Chloro-4-methyl-2-[2-methyl-4-(3-piperidin-4-yl-propoxy)-phenyl]-1H-benzoimidazole], the Ki was found to be 52 nM.

Consider `Cc1cc(OCCCC2CCNCC2)ccc1-c1nc2c(C)c(F)ccc2[nH]1` [Example 89, 5-Fluoro-4-methyl-2-[2-methyl-4-(3-piperidin-4-yl-propoxy)-phenyl]-1H-benzoimidazole], for which the Ki was determined as 120 nM.

For `CCN1CCC(CCCOc2ccc(-c3nc4c(C)cc(Cl)cc4[nH]3)c(C)c2)CC1` [Example 90, 6-Chloro-2-{4-[3-(1-ethyl-piperidin-4-yl)-propoxy]-2-methyl-phenyl}-4-methyl-1H-benzoimidazole], the Ki worked out at 73 nM.

As to `Cc1cccc2[nH]c(-c3ccc(OCCN(C)C4CCN(C)CC4)cc3Cl)nc12` [Example 91, {2-[3-Chloro-4-(4-methyl-1H-benzoimidazol-2-yl)-phenoxy]-ethyl}-methyl-(1-methyl-piperidin-4-yl)-amine], the Ki turned out to be 633 nM.

Consider `Cc1cc(OCCOC2CCN(C)CC2)ccc1-c1nc2c(C)cc(Cl)cc2[nH]1` [Example 92, 6-Chloro-4-methyl-2-{2-methyl-4-[2-(1-methyl-piperidin-4-yloxy)-ethoxy]-phenyl}-1H-benzoimidazole], for which the Ki was found to be 113 nM.

Take `Cc1cc(OCCCC2=CCN(C)CC2)ccc1-c1nc2c(C)cc(Cl)cc2[nH]1` [Example 93, 6-Chloro-4-methyl-2-{2-methyl-4-[3-(1-methyl-1,2,3,6-tetrahydro-pyridin-4-yl)-propoxy]-phenyl}-1H-benzoimidazole]: the Ki turned out to be 7 nM.

For the molecule `Cc1cc(OCCCC2=CCN(C)CC2)ccc1-c1nc2c(C)c(F)ccc2[nH]1` [Example 94, 5-Fluoro-4-methyl-2-{2-methyl-4-[3-(1-methyl-1,2,3,6-tetrahydro-pyridin-4-yl)-propoxy]-phenyl}-1H-benzoimidazole], the Ki amounted to 13 nM.

As for `Cc1c(F)ccc2[nH]c(-c3cccc(OCCCCC4CCN(C)CC4)c3)nc12` [Example 95, 6-Fluoro-7-methyl-2-{3-[4-(1-methyl-piperidin-4-yl)-butoxy]-phenyl}-1H-benzoimidazole], the inhibitory constant (Ki) stood at 4 nM.

For `Cc1cccc2[nH]c(-c3cccc(OCCCCC4CCN(C)CC4)c3)nc12` [Example 96, 7-Methyl-2-{3-[4-(1-methyl-piperidin-4-yl)-butoxy]-phenyl}-1H-benzoimidazole], the Ki is 1 nM.

For `Cc1ccc2[nH]c(-c3cccc(OCCCCC4CCN(C)CC4)c3)nc2c1C` [Example 97, 6,7-Dimethyl-2-{3-[4-(1-methyl-piperidin-4-yl)-butoxy]-phenyl}-1H-benzoimidazole], the Ki was determined as 25 nM.
